“And” between values parts separate entries of the source, which are not always exact repeats. Identical values can stand only once. Toxic doses and inconclusive results are not listed. Rule for the calls: active = survival T/C of 150% or more; inactive = T/C below 125% in these data.
Tested on: C57BL/6 mice, intracerebral ependymoblastoma, median survival T/C
Experiment: NCI In Vivo Anticancer Drug Screen. Data for tumor model Ependymoblastoma (intracerebral) in C57BL/6 mice
Conditions: endpoint: median survival time, higher = longer survival
Method: The antitumor activity of compounds was measured in mice bearing transplantable tumors. Survival or tumor size were measured and the results are expressed as the measurement made in the treated group (T) divided by the measurement made in the vehicle treated control group (C). The tumor model used in this assay is Ependymoblastoma (intracerebral) in C57BL/6 mice

[1] = dose: 8.0 mg/kg/injection, schedule: Q01DX005 (ip), vehicle: Klucel (hydroxypropylcellulose) (HPC)
[2] = dose: 8.0 mg/kg/injection, schedule: Q01DX005 (ip), vehicle: saline with Tween-80
[3] = dose: 16.0 mg/kg/injection, schedule: Q01DX005 (ip), vehicle: Klucel (hydroxypropylcellulose) (HPC)
[4] = dose: 16.0 mg/kg/injection, schedule: Q01DX005 (ip), vehicle: saline with Tween-80
[5] = dose: 32.0 mg/kg/injection, schedule: Q01DX005 (ip), vehicle: Klucel (hydroxypropylcellulose) (HPC)
[6] = dose: 32.0 mg/kg/injection, schedule: Q01DX005 (ip), vehicle: saline with Tween-80
[7] = dose: 32.0 mg/kg/injection, schedule: Q01DX005 (ip), vehicle: saline
[8] = dose: 64.0 mg/kg/injection, schedule: Q01DX005 (ip), vehicle: saline
[9] = dose: 4.0 mg/kg/injection, schedule: Q01DX005 (ip), vehicle: Klucel (hydroxypropylcellulose) (HPC)
[10] = dose: 64.0 mg/kg/injection, schedule: Q01DX005 (ip), vehicle: Klucel (hydroxypropylcellulose) (HPC)
[11] = dose: 4.0 mg/kg/injection, schedule: Q01DX005 (ip), vehicle: saline with Tween-80
[12] = dose: 6.25 mg/kg/injection, schedule: Q01DX005 (ip), vehicle: Klucel (hydroxypropylcellulose) (HPC)
[13] = dose: 12.5 mg/kg/injection, schedule: Q01DX005 (ip), vehicle: Klucel (hydroxypropylcellulose) (HPC)
[14] = dose: 25.0 mg/kg/injection, schedule: Q01DX005 (ip), vehicle: Klucel (hydroxypropylcellulose) (HPC)

Measured: T/C

NC(C/[N+]([O-])=N/O)C(=O)O (stereo not drawn)
inactive: dose: 7.0 mg/kg/injection, schedule: Q01DX005 (ip), vehicle: saline 119 % of control | dose: 14.0 mg/kg/injection, schedule: Q01DX005 (ip), vehicle: saline 119 % of control | dose: 56.0 mg/kg/injection, schedule: Q01DX005 (ip), vehicle: saline 95 % of control

O=C(NP(=O)(N1CC1)N1CC1)c1cc(I)ccc1I
inactive: [1] 106 % of control | [2] 91 % of control and 104 % of control | dose: 8.0 mg/kg/injection, schedule: Q01DX005 (ip), vehicle: saline 102 % of control and 107 % of control | [3] 113 % of control | [4] 101 % of control and 106 % of control | dose: 16.0 mg/kg/injection, schedule: Q01DX005 (ip), vehicle: saline 102 % of control and 119 % of control | [5] 120 % of control | [6] 101 % of control | [7] 113 % of control | [8] 119 % of control and 124 % of control

O=C1C(=O)c2ccccc2C(O)=C1CC=C(Cl)Cl
inactive: [9] 102 % of control and 109 % of control | [1] 100 % of control and 122 % of control | [3] 104 % of control and 113 % of control | [5] 107 % of control and 108 % of control | [10] 101 % of control and 105 % of control

C[C@@H](CN1CC(=O)NC(=O)C1)N1CC(=O)NC(=O)C1
inactive: dose: 1.0 mg/kg/injection, schedule: Q01DX005 (ip), vehicle: water 110 % of control | [9] 103 % of control (2×) and 118 % of control | [11] 103 % of control | dose: 4.0 mg/kg/injection, schedule: Q01DX005 (ip), vehicle: water 106 % of control | [2] 104 % of control | [3] 106 % of control and 112 % of control and 120 % of control | [4] 108 % of control | dose: 16.0 mg/kg/injection, schedule: Q01DX005 (ip), vehicle: water 111 % of control | [6] 112 % of control | [7] 108 % of control and 111 % of control | [10] 115 % of control and 121 % of control | dose: 64.0 mg/kg/injection, schedule: Q01DX005 (ip), vehicle: saline with Tween-80 113 % of control | [8] 119 % of control and 121 % of control | dose: 64.0 mg/kg/injection, schedule: Q01DX005 (ip), vehicle: water 116 % of control | dose: 128.0 mg/kg/injection, schedule: Q01DX005 (ip), vehicle: saline 120 % of control

NC(=O)c1ncn(C2OC(CO)C(O)C2O)n1 (stereo not drawn)
inactive: dose: 20.0 mg/kg/injection, schedule: Q01DX005 (ip), vehicle: saline 108 % of control | dose: 40.0 mg/kg/injection, schedule: Q01DX005 (ip), vehicle: saline 105 % of control | dose: 80.0 mg/kg/injection, schedule: Q01DX005 (ip), vehicle: saline 108 % of control

Nc1ccc(S(N)(=O)=O)cc1
inactive: dose: 45.0 mg/kg/injection, schedule: Q01DX005 (ip), vehicle: saline with Tween-80 97 % of control | dose: 90.0 mg/kg/injection, schedule: Q01DX005 (ip), vehicle: saline with Tween-80 88 % of control | dose: 180.0 mg/kg/injection, schedule: Q01DX005 (ip), vehicle: saline with Tween-80 96 % of control | dose: 360.0 mg/kg/injection, schedule: Q01DX005 (ip), vehicle: saline with Tween-80 100 % of control | dose: 720.0 mg/kg/injection, schedule: Q01DX005 (ip), vehicle: saline with Tween-80 90 % of control

O=C1N(Cl)C(=O)C(c2ccc(Cl)cc2)(c2ccc(Cl)cc2)N1Cl
inactive: dose: 1.56 mg/kg/injection, schedule: Q01DX005 (ip), vehicle: Klucel (hydroxypropylcellulose) (HPC) 105 % of control | dose: 3.12 mg/kg/injection, schedule: Q01DX005 (ip), vehicle: Klucel (hydroxypropylcellulose) (HPC) 110 % of control | [12] 99 % of control | [13] 112 % of control | [14] 110 % of control

C(COCCOCC1CO1)OCCOCC1CO1 (stereo not drawn)
inactive: dose: 50.0 mg/kg/injection, schedule: Q01DX005 (ip), vehicle: saline with Tween-80 93 % of control | dose: 100.0 mg/kg/injection, schedule: Q01DX005 (ip), vehicle: saline with Tween-80 96 % of control | dose: 200.0 mg/kg/injection, schedule: Q01DX005 (ip), vehicle: saline with Tween-80 96 % of control | dose: 400.0 mg/kg/injection, schedule: Q01DX005 (ip), vehicle: saline with Tween-80 113 % of control

CC[n+]1c(-c2ccccc2)c2cc(N)ccc2c2ccc(N)cc21
inactive: dose: 12.0 mg/kg/injection, schedule: Q01DX005 (ip), vehicle: saline 99 % of control

O=C(O)CCCc1ccc(N(CCCl)CCCl)cc1
inactive: dose: 0.12 mg/kg/injection, schedule: Q01DX005 (ip), vehicle: Klucel (hydroxypropylcellulose) (HPC) 115 % of control | dose: 0.25 mg/kg/injection, schedule: Q01DX005 (ip), vehicle: Klucel (hydroxypropylcellulose) (HPC) 110 % of control | dose: 1.0 mg/kg/injection, schedule: Q01DX005 (ip), vehicle: Klucel (hydroxypropylcellulose) (HPC) 100 % of control | dose: 2.0 mg/kg/injection, schedule: Q01DX001 (ip), vehicle: Klucel (hydroxypropylcellulose) (HPC) 100 % of control | dose: 2.0 mg/kg/injection, schedule: Q01DX005 (ip), vehicle: Klucel (hydroxypropylcellulose) (HPC) 100 % of control and 111 % of control and 120 % of control | dose: 4.0 mg/kg/injection, schedule: Q01DX001 (ip), vehicle: Klucel (hydroxypropylcellulose) (HPC) 106 % of control | [9] 107 % of control and 109 % of control and 122 % of control | dose: 8.0 mg/kg/injection, schedule: Q01DX001 (ip), vehicle: Klucel (hydroxypropylcellulose) (HPC) 105 % of control | [1] 109 % of control and 110 % of control and 122 % of control | [3] 96 % of control and 122 % of control

N[C@H](C(=O)O)[C@@H]1CC(Cl)=NO1
inactive: dose: 1.0 mg/kg/injection, schedule: Q01DX005 (ip), vehicle: saline with Tween-80 93 % of control | dose: 2.0 mg/kg/injection, schedule: Q01DX005 (ip), vehicle: saline with Tween-80 94 % of control | [11] 113 % of control | [2] 108 % of control | dose: 8.0 mg/kg/injection, schedule: Q12HX002 (ip), vehicle: saline 118 % of control | dose: 16.0 mg/kg/injection, schedule: Q01DX001 (ip), vehicle: saline 100 % of control and 114 % of control | dose: 16.0 mg/kg/injection, schedule: Q12HX002 (ip), vehicle: saline 97 % of control | dose: 32.0 mg/kg/injection, schedule: Q01DX001 (ip), vehicle: saline 101 % of control | dose: 32.0 mg/kg/injection, schedule: Q12HX002 (ip), vehicle: saline 113 % of control | dose: 64.0 mg/kg/injection, schedule: Q01DX001 (ip), vehicle: saline 103 % of control and 113 % of control | dose: 64.0 mg/kg/injection, schedule: Q01DX001 (oral), vehicle: saline 93 % of control and 105 % of control | dose: 64.0 mg/kg/injection, schedule: Q12HX002 (ip), vehicle: saline 116 % of control | dose: 128.0 mg/kg/injection, schedule: Q01DX001 (ip), vehicle: saline 106 % of control and 108 % of control | dose: 128.0 mg/kg/injection, schedule: Q01DX001 (oral), vehicle: saline 98 % of control and 106 % of control | dose: 128.0 mg/kg/injection, schedule: Q12HX002 (ip), vehicle: saline 108 % of control | dose: 256.0 mg/kg/injection, schedule: Q01DX001 (ip), vehicle: saline 106 % of control and 108 % of control | dose: 256.0 mg/kg/injection, schedule: Q01DX001 (oral), vehicle: saline 102 % of control and 117 % of control | dose: 512.0 mg/kg/injection, schedule: Q01DX001 (oral), vehicle: saline 106 % of control and 121 % of control | dose: 1024.0 mg/kg/injection, schedule: Q01DX001 (oral), vehicle: saline 110 % of control and 115 % of control

O=C1NC(=O)C2(CCc3ccc(N(CCCl)CCCl)cc32)N1 (stereo not drawn)
inactive: dose: 0.75 mg/kg/injection, schedule: Q01DX009 (ip), vehicle: Klucel (hydroxypropylcellulose) (HPC) 93 % of control | dose: 1.5 mg/kg/injection, schedule: Q01DX009 (ip), vehicle: Klucel (hydroxypropylcellulose) (HPC) 101 % of control | dose: 3.0 mg/kg/injection, schedule: Q01DX009 (ip), vehicle: Klucel (hydroxypropylcellulose) (HPC) 115 % of control | dose: 6.0 mg/kg/injection, schedule: Q01DX009 (ip), vehicle: Klucel (hydroxypropylcellulose) (HPC) 98 % of control | [12] 114 % of control | dose: 12.0 mg/kg/injection, schedule: Q01DX009 (ip), vehicle: Klucel (hydroxypropylcellulose) (HPC) 91 % of control | [13] 115 % of control | [14] 102 % of control
